In US7521463B2, “Immunomodulatory compounds” (University of Maryland, Baltimore, priority 2000, dated 2009):
“Also recorded” adds a separate entry of the source.

Assays:
[1] = system: OKT-3 activated Jurkat cells; experiment: Jurkat cell activation-dependent phosphorylation (OKT-3, anti-phosphotyrosine western blot); assay type: cell-based; settings: for effect on tyrosine phosphorylation of Jurkat cellular proteins, dose response: OKT-3, 0.1, 1, 10 and 100 μM; for effect on cellular tyrosine phosphorylation stimulated by OKT-3: compound 100 μM, 5 min at 37° C.
Experimental: Phosphorylation in Jurkat cells activated by the monoclonal antibody, OKT-3, is correlated with T-cell activation.
A. Compounds are tested for their effect on OKT-3 activated Jurkat cells. OKT-3 is a monoclonal antibody against CD3-ε chain. Treatment of Jurkat cells with OKT-3 antibody for 5 min at 37° C. activates Jurkat cells and induces tyrosine phosphorylation of several cellular proteins. […] Experiments are carried out to determine if compounds of the invention, or known compounds which can serve as standards, affect cellular tyrosine phosphorylation stimulated by OKT-3 in Jurkat cells.
The assay is performed as follows: Jurkat cells (1×10^6 cells) in RPMI 1640 supplemented with 10% fetal bovine serum (FBS) are treated with OKT-3 antibody (0.2 μg) and compounds (100 μM) for 5 min at 37° C. Cultures are immediately placed on ice after the incubation period, washed 3 times with cold PBS and lysed in 20 μl of SDS-sample buffer. Samples are briefly sonicated and boiled for 5 min and applied to SDS-PAGE (12% gel). After SDS-PAGE, proteins are blotted onto Immobilon P membrane (Millipore) for western blot analysis. Membranes are blocked overnight with 5% dried milk in TBST (Tris buffered saline containing 1% triton X-100). After washing, blots are incubated with monoclonal anti-phosphotyrosine antibody for 1 h in TBST followed by 1 hr incubation with horseradish peroxidase (HRP)-conjugated goat anti-mouse IgG. Blots are developed using enhanced chemiluminescence (ECL, Pierce).
The assay is performed as follows: Western blot analyses using anti-phosphotyrosine antibody are performed. Compounds (e.g., inventive compounds I′, II′ and III′) are added at concentrations of 0.1, 1, 10 and 100 μM. Cells are cultured as above.

p56^lck = p56^lck (Homo sapiens, UniProt P06239); experiment: p56^lck kinase activity (general statement); assay type: biochemical
Jurkat cells = experiment: Effect on Jurkat cell viability / growth; assay type: cell-based; settings: 10 μM
Experimental: Compounds can be tested to determine whether they are cytotoxic or cytostatic. To test whether a compound which inhibits OKT-3-mediated stimulation of tyrosine phosphorylation has a cytotoxic effect on Jukat cells, its effect on the growth of Jurkat cells is tested.

[2] = system: IL-2 production in Jurkat cells; experiment: Inhibition of IL-2 production in OKT-3 treated Jurkat cells (RIA); assay type: cell-based, human
Experimental: Interleukin 2 (IL-2) is an autocrine growth factor for T cells, the production of which requires T cell antigen receptor and co-receptor generated activation signals in normal T cells. The production of IL-2 is a hallmark of T cell activation signaling, leading to the clonal expansion of antigen-specific T cell clones. In Jurkat cells, treatment of cells with OKT-3 leads to the production of IL-2. […] For example, about 50% inhibition of IL-2 production is observed when cells are treated with 10 μM compound III′ at the time of OKT-3 treatment. […] Unlike the complete inhibition of OKT-3 induced tyrosine phosphorylation, the inhibition of IL-2 production by compound III′ is partial.
The assay is performed as follows: Jurkat cells (1×10^6 cells) are treated with OKT-3 antibody (0.2 μg) in the presence or absence of compounds (e.g., Compound III′) (0.1, 1 and 10 μM) for 24 h in RPMI 1640+10% FBS. At the end of the incubation period, culture media are harvested and assayed for human IL-2 by RIA. Cells treated with OKT-3 only and PMA+Ionomycin serves as a positive control. Untreated cells serve as a negative control. IL-2 production is not detected in untreated cells. Cells treated with 10 μM of Compound III′ are shown to inhibit IL-2 production by 44%. The standard deviation is 0.23 pg/ml.

Sequence of p56^lck (P06239 whole entry): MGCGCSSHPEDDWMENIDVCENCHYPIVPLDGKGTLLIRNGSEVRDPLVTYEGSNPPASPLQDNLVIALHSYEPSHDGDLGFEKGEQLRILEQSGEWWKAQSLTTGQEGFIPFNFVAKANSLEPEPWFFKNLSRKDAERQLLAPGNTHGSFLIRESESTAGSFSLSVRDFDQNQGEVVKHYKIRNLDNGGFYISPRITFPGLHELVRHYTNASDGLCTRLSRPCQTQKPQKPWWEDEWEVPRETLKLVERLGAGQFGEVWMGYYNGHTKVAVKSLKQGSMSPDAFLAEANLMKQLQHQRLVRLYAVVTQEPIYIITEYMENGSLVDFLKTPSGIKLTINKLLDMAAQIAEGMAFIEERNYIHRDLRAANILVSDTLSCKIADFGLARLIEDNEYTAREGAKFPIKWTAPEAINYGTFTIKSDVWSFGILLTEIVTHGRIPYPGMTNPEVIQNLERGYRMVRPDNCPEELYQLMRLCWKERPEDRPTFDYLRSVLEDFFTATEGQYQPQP

Compound	effect on tyrosine phosphorylation of Jurkat cellular proteins, dose response [1]	effect on cellular tyrosine phosphorylation stimulated by OKT-3 [1]	effect on p56^lck kinase activity (p56^lck)	effect on tyrosine phosphorylation at the lowest concentration ([1]; OKT-3, 0.1 μM)	cytotoxic effect on Jurkat cells (Jurkat cells)	effect on the growth of Jurkat cells (Jurkat cells)	time after addition of compound at which Jurkat cells resume normal rate of growth (Jurkat cells) [h]	inhibition at 10 µM ([2]; Homo sapiens, Jurkat, 24 h, 10 μM, at the time of OKT-3 treatment) [%]	effect on IL-2 production at lower concentrations ([2]; lower concentrations (0.1, 1 μM), OKT-3, 24 h)
CC(=O)OCc1cccc2cccc(Sc3ccccc3C(=O)O)c12 [Compound I′]	significantly stimulate tyrosine phosphorylation of Jurkat cellular proteins in a dose-dependent manner; also recorded: dose-dependent stimulation of tyrosine phosphorylation	stimulatory activity	activates p56^lck kinase activity	–	–	–	–	–	–
O=C(Sc1ccccn1)c1ccc(Oc2ccc(Cl)cc2Cl)c([N+](=O)[O-])c1 [Compound III′]	completely inhibits tyrosine phosphorylation of cellular proteins	inhibitory activity	inhibits p56^lck kinase activity	inhibits tyrosine phosphorylation	no cytotoxic effect is observed	some cytostatic effect	24	~50	no observable effect
